Data from ChEMBL document CHEMBL1938284, “Synthesis and biological activity of novel organoselenium derivatives targeting multiple kinases and capable of inhibiting cancer progression to metastases” (Eur J Med Chem, 2012).

How the values were obtained:
[1] = biological target: T1, Mitogen-activated protein kinase 12 (Homo sapiens) (UniProt P53778); assay: Inhibition of p38-gamma at 1 uM
T1 sequence (whole entry): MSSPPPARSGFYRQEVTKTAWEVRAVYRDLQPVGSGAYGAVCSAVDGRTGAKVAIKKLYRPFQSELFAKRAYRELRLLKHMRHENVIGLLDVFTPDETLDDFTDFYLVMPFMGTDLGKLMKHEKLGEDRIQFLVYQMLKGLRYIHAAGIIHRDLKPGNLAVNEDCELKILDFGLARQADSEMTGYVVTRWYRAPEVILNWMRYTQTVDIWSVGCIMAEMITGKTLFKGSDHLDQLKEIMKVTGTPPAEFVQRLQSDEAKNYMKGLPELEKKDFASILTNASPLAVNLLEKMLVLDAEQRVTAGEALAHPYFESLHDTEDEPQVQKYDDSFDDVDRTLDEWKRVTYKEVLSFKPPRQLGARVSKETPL

[2] = biological target: Tyrosine-protein kinase receptor Tie-1 (Homo sapiens) (UniProt P35590); assay: Inhibition of TIE1 at 1 uM
[3] = biological target: Insulin-like growth factor 1 receptor (Homo sapiens) (UniProt P08069); assay: Inhibition of IGF1R at 1 uM
[4] = biological target: T2, Aurora kinase A (Homo sapiens) (UniProt O14965); assay: Inhibition of Aurora A at 1 uM
T2 sequence (whole entry): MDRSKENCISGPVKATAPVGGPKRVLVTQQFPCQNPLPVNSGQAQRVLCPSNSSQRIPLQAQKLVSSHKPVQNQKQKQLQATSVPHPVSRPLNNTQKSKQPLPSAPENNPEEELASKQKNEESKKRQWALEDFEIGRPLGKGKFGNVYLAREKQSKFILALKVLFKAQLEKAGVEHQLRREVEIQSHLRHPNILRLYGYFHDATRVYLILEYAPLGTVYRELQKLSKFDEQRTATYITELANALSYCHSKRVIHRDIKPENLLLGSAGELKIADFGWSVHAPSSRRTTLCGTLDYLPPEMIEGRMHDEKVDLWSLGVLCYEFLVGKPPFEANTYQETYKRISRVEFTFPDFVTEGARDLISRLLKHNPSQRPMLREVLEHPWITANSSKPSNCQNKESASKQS

[5] = biological target: Receptor-type tyrosine-protein kinase FLT3 (Homo sapiens) (UniProt P36888); assay: Inhibition of FLT3 at 1 uM
[6] = biological target: Protein kinase C alpha type (Homo sapiens, UniProt P17252); assay: Inhibition of PKCalpha at 1 uM
[7] = biological target: T3, Serine/threonine-protein kinase PLK4 (Homo sapiens) (UniProt O00444); assay: Inhibition of PLK4 at 1 uM
T3 sequence (whole entry): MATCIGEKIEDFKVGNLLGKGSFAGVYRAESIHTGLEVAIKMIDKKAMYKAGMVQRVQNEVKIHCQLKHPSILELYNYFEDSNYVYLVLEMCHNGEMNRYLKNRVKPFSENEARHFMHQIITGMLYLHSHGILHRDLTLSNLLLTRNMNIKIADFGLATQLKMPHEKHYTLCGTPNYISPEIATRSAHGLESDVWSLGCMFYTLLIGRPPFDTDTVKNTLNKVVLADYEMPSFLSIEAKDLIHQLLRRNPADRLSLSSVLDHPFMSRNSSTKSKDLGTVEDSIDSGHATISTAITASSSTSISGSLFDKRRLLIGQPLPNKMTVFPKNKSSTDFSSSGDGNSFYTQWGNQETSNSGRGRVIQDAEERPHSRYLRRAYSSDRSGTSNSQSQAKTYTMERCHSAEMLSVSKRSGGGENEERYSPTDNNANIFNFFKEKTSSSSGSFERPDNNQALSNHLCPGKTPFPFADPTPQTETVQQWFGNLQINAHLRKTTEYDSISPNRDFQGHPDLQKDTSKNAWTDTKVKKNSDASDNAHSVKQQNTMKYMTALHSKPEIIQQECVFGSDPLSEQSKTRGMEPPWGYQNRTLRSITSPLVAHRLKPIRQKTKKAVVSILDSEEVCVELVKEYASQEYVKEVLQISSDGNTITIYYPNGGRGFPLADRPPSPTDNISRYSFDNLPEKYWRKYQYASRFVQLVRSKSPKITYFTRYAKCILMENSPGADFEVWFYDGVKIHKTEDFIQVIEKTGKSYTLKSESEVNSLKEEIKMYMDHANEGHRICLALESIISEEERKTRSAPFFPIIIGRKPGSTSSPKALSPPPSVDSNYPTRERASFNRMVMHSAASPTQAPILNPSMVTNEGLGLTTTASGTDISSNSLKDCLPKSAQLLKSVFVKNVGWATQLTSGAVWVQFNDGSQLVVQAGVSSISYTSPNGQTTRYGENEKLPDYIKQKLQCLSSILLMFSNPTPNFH

[8] = biological target: Ribosomal protein S6 kinase alpha-4 (Homo sapiens) (UniProt O75676); assay: Inhibition of RPS6KA4 at 1 uM
[9] = biological target: Tyrosine-protein kinase ABL1 (Homo sapiens) (UniProt P00519); assay: Inhibition of ABL1 at 1 uM
[10] = biological target: Serine/threonine-protein kinase PAK 1 (Homo sapiens) (UniProt Q13153); assay: Inhibition of PAK1 at 1 uM
[11] = biological target: Insulin receptor (Homo sapiens) (UniProt P06213); assay: Inhibition of INSR at 1 uM
[12] = biological target: Receptor tyrosine-protein kinase erbB-2 (Homo sapiens) (UniProt P04626); assay: Inhibition of HER2 at 1 uM
[13] = biological target: Epidermal growth factor receptor (Homo sapiens) (UniProt P00533); assay: Inhibition of EGFR at 1 uM

Sequence of Tyrosine-protein kinase receptor Tie-1 (Homo sapiens) (P35590 whole entry): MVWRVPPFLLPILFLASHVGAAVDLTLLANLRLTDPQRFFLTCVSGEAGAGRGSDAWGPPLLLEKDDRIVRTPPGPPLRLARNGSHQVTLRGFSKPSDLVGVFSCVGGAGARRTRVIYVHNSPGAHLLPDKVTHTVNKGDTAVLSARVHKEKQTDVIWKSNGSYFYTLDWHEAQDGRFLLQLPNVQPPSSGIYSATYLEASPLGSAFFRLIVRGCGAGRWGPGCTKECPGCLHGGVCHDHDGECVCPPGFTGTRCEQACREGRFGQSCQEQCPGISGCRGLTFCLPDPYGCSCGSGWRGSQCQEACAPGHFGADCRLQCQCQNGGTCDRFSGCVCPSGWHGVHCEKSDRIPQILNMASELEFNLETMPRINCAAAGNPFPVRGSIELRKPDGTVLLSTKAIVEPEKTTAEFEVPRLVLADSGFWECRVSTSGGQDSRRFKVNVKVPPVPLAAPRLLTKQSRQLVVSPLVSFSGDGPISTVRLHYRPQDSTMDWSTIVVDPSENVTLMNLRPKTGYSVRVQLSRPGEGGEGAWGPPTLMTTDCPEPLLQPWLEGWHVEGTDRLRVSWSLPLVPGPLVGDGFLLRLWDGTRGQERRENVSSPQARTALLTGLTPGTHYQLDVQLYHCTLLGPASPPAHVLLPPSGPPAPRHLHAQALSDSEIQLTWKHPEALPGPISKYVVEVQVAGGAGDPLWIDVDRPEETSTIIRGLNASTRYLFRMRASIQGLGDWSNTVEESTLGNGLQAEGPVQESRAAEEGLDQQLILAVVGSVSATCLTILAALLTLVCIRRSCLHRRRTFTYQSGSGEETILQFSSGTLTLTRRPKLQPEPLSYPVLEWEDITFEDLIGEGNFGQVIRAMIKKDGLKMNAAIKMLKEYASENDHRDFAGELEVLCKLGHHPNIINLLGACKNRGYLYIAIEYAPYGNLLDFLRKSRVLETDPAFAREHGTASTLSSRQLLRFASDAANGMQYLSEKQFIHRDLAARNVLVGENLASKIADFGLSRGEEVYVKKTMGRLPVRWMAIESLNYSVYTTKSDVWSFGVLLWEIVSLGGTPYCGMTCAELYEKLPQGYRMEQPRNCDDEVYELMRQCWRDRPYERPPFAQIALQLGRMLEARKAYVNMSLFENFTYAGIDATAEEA
Sequence of Insulin receptor (Homo sapiens) (P06213 28-758 limits assumed): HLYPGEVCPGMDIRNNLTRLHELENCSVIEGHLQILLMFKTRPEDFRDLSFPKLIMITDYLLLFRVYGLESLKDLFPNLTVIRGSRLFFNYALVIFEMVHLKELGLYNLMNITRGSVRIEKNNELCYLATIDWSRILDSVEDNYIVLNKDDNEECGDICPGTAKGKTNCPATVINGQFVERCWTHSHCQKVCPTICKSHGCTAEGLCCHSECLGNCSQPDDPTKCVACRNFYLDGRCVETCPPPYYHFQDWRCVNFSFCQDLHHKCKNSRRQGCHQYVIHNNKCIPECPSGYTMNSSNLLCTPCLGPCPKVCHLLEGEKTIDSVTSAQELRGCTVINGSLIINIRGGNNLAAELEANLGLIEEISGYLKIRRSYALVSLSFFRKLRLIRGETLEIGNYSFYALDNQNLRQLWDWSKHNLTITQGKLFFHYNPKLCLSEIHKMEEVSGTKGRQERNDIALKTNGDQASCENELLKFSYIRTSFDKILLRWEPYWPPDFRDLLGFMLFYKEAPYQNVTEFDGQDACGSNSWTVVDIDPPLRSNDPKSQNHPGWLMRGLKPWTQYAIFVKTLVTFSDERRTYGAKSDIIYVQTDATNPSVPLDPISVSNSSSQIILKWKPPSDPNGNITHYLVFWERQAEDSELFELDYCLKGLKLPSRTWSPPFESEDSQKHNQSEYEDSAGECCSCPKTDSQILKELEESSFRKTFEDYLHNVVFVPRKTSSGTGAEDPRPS
Sequence of Insulin receptor (Homo sapiens) (P06213 763-1382 limits assumed): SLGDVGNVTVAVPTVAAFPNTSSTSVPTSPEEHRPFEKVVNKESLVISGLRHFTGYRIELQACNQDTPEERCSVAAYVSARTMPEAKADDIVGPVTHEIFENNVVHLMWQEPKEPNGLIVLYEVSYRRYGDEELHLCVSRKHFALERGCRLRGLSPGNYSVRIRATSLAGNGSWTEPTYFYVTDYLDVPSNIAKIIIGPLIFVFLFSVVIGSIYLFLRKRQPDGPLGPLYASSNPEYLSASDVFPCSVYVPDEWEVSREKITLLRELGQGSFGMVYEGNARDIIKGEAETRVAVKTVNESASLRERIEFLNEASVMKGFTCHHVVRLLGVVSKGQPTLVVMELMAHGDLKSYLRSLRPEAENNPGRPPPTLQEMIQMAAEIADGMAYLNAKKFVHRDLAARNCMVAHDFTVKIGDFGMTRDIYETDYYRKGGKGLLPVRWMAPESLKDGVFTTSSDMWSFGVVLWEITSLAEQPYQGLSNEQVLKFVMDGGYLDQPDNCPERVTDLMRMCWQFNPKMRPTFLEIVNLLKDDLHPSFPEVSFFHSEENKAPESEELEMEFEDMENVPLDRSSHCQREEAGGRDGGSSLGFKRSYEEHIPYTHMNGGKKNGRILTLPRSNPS
Sequence of Insulin-like growth factor 1 receptor (Homo sapiens) (P08069 31-736 limits assumed): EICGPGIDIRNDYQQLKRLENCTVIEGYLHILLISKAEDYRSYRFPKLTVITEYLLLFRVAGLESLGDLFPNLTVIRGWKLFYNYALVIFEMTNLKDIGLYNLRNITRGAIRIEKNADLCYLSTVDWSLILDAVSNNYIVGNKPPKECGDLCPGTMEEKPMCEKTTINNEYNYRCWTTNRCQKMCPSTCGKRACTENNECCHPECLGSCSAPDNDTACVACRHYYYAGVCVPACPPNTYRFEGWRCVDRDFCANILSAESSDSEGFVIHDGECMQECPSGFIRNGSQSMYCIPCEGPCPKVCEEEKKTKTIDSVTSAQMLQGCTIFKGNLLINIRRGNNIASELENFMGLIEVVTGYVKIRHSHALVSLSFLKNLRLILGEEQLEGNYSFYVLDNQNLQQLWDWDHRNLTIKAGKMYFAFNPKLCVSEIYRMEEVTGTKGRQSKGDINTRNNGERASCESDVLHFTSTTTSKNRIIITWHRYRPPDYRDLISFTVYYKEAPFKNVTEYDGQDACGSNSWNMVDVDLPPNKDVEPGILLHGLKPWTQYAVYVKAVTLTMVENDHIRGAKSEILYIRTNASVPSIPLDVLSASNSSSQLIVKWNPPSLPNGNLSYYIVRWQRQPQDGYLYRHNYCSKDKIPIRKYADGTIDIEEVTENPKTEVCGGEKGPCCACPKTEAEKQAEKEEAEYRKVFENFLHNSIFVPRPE
Sequence of Insulin-like growth factor 1 receptor (Homo sapiens) (P08069 741-1367 limits assumed): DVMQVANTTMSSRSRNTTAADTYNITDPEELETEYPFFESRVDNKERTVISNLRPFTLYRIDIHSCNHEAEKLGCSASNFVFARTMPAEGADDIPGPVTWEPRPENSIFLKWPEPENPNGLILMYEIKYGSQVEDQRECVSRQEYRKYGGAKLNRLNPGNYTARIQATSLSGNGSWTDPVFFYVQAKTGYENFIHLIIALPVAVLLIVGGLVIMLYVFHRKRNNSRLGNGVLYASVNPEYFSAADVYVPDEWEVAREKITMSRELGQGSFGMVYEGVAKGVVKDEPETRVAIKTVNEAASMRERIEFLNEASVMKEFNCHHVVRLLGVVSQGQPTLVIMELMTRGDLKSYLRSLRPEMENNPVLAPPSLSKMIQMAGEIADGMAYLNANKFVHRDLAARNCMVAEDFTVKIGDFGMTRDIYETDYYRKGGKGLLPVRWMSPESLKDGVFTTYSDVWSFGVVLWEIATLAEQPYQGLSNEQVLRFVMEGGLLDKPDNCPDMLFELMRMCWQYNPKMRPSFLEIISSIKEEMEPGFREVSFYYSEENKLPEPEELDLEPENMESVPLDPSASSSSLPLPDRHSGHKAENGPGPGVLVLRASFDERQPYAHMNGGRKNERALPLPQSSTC
Sequence of Serine/threonine-protein kinase PAK 1 (Homo sapiens) (Q13153 whole entry): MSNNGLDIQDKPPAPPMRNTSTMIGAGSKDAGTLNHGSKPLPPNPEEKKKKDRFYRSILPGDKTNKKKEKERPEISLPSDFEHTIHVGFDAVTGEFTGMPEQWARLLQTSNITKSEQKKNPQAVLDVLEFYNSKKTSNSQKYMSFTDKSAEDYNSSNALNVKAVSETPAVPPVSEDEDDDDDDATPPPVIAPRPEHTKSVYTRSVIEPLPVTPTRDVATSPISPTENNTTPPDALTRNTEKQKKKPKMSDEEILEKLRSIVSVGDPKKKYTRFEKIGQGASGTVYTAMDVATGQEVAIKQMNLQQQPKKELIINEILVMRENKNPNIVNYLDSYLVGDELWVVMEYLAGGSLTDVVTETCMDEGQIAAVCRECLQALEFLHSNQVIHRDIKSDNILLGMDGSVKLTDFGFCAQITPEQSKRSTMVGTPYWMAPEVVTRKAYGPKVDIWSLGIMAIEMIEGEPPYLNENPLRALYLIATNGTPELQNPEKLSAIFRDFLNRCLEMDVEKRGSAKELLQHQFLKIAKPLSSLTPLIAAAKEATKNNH

| Structure (SMILES) | inhibition [1] | inhibition [2] | inhibition [3] | inhibition [4] | inhibition [5] | inhibition [6] | inhibition [7] | inhibition [8] | inhibition [9] | inhibition [10] | inhibition [11] | inhibition [12] | inhibition [13] |
| --- | --- | --- | --- | --- | --- | --- | --- | --- | --- | --- | --- | --- | --- |
| CC(=O)OC[C@H]1O[C@@H](O[C@H]2[C@H](OC(C)=O)[C@@H](OC(C)=O)[C@H](n3[se]c4ccccc4c3=O)O[C@@H]2COC(C)=O)[C@H](OC(C)=O)[C@@H](OC(C)=O)[C@H]1OC(C)=O | 0% | 0% | 1% | 0% | 0% | 95% | 0% | 0% | 0% | 0% | 0% | 0% | 0% |
| O=C(CCCn1[se]c2ccccc2c1=O)N[C@@H]1O[C@H](CO)[C@@H](O)[C@H](O)[C@H]1O | 0% | 0% | 0% | 0% | 0% | 74% | 0% | 0% | 0% | 0% | 0% | 0% | 0% |
| O=c1c2ccccc2[se]n1-c1ccccc1 [EBSELEN] | 0% | 0% | 0% | 0% | 0% | 25% | 0% | 0% | 0% | 0% | 0% | 0% | 0% |
| CC(=O)OC[C@H]1O[C@@H](NC(=O)CCCn2[se]c3ccccc3c2=O)[C@H](OC(C)=O)[C@@H](OC(C)=O)[C@@H]1OC(C)=O | 0% | 0% | 0% | 0% | 0% | 77% | 0% | 0% | 0% | 0% | 0% | 0% | 0% |
